In PubChem BioAssay AID651569 (Sanford-Burnham Center for Chemical Genomics, 2012):
The source made the active and inactive calls. How the calls were made is not given here.

System: luminescent cytotoxicity (cell viability) counter-screen
Test: cytotoxicity of Gli-SUFU antagonist hits, dose response, cytotoxicity control for Gli-SUFU antagonist project, cell-based, luminescence, uHTS hits (AID 651569);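 further: compound exposure lasted overnight before the viability readout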

c1ccc(-c2c[n+]3c(n2-c2ccccc2)CCC3)cc1
IC50: > 20 µM (inactive)

CCCCOc1ncnc2c1[nH]c1ccc(F)cc12
IC50: > 20 µM (inactive)

COCCNc1nc2c(c(=O)n(C)c(=O)n2C)n1Cc1cccc(C)c1
IC50: > 20 µM (inactive)

CN(Cc1ccc(OCC(O)CN2CCCCC2)cc1)Cc1ccnc2ccccc12 (stereo not drawn)
IC50: > 20 µM (inactive)

CC(=O)c1ccc(-n2cc(-c3ccc(C(C)(C)C)cc3)[n+]3c2SCCC3)cc1
IC50: > 20 µM (inactive)

CCN1C(=O)CCN(C2CCCC2)c2nc(Nc3ccc(C(=O)NC4CCN(C)CC4)cc3OC)ncc21
IC50: > 20 µM (inactive)

CC1CCN(Cc2c(C(=O)N/N=C/c3ccccc3O)nnn2-c2nonc2N)CC1
IC50: > 20 µM (inactive)

CC(=O)Nc1cccc(OCC(=O)/C=C2\N(C)c3ccccc3C2(C)C)c1
IC50: > 20 µM (inactive)

O=C(Cc1csc(Nc2nc(=S)[nH]c3ccccc23)n1)NCCCN1CCN(c2ccccc2F)CC1
IC50: > 20 µM (inactive)

CC(CC(=O)N1CCN(c2cccc(Cl)c2)CC1)S(=O)(=O)c1ccc2c(c1)NC(=O)CO2 (stereo not drawn)
IC50: > 20 µM (inactive)

CCCOc1ccc(Br)cc1CSC(=N)N
IC50: 8.78 µM

COc1nnc(-c2ccc(N3CCCCC3)c(N)c2)c2ccccc12
IC50: > 20 µM (inactive)

Cc1cc(Nc2ccc([N+](=O)[O-])cc2)c2ccccc2n1
IC50: > 20 µM (inactive)

O=C(/C=C/c1ccco1)Nc1ccc(-c2nc3ccccc3[nH]2)cc1
IC50: > 20 µM (inactive)

CCn1c(=NC(=O)CCS(=O)(=O)c2ccccc2)sc2cccc(OC)c21
IC50: > 20 µM (inactive)

COc1ccc(CN(C)C(=O)c2cccc(NC(=O)CC3SC(N4CCCCC4)=NC3=O)c2)c(OC)c1 (stereo not drawn)
IC50: > 20 µM (inactive)

CCCCCCCOc1ccc(OC(=O)c2cccnc2)cc1
IC50: > 20 µM (inactive)

O=C1N/C(=C\c2ccc(O)cc2)C(O)=C1C=NCc1ccccc1
IC50: 4.41 µM

Cc1ccc(OCCN2CCN(c3ncnc4sc(C)c(C)c34)CC2)cc1
IC50: > 20 µM (inactive)

CCN(CC(=O)Nc1c(F)cccc1F)C(=O)c1cc(S(=O)(=O)N(CC)CC)ccc1N1CCCCC1
IC50: 9.1 µM

CCN(CC)S(=O)(=O)c1ccc(S(=O)(=O)Nc2c(C)nn(C)c2C)cc1
IC50: > 20 µM (inactive)

Cc1ccc(OCCOC(=O)c2cc(S(=O)(=O)N3CCCCC3)ccc2N2CCOCC2)cc1
IC50: > 20 µM (inactive)

CCCCSc1nc2sc3c(c2c(=O)n1-c1ccc(C)cc1)CCN(C)C3
IC50: > 20 µM (inactive)

COc1ccc(Nc2nc(N3CCOCC3)nc(N3CCOCC3)n2)c(OC)c1
IC50: > 20 µM (inactive)

O=C(N[C@@H]1C/C=C\C[C@@H](CC(=O)N(CCO)Cc2ccccc2)C(=O)N[C@@H](c2ccccc2)COC1=O)OCC1c2ccccc2-c2ccccc21
IC50: > 20 µM (inactive)

Cc1nn(-c2ccc(NC(=O)c3ccncc3)cc2)c(C)c1Cl
IC50: > 20 µM (inactive)

COc1cccc(/C=C/c2ccncc2)c1OC
IC50: > 20 µM (inactive)

CC(C)C[C@H]1CN=C(N(C)C)N1CCCCc1ccccc1
IC50: > 20 µM (inactive)

Cc1ccc(S(=O)(=O)N2CCN(C(=O)C3CCN(c4ncnc5sc(C)c(C)c45)CC3)CC2)c(C)c1
IC50: > 20 µM (inactive)

Cc1nn(C)c(C(=O)NCc2ccc(Cl)cc2)c1Cl
IC50: > 20 µM (inactive)

Cc1cccc(C)c1NC(=S)N(CCN1CCCCCC1)Cc1ccco1
IC50: > 20 µM (inactive)

O=C(Nc1ccncc1)c1ccc(-c2ccccc2)cc1
IC50: > 20 µM (inactive)

O=C(COC(=O)c1ccc2[nH]c3c(c2c1)CCCC3)Nc1ccccc1Cl
IC50: > 20 µM (inactive)

CCc1ccccc1NC(=S)N=Nc1c(O)n(C)c2ccc(S(=O)(=O)N3CCOCC3)cc12
IC50: > 20 µM (inactive)

CC(=O)c1c(C)[nH]c(C(=O)OCC(=O)Nc2sc3c(c2C#N)CCCC3)c1C
IC50: > 20 µM (inactive)

CCOC(=O)c1c(NC(=O)C(=O)N/N=C/c2ccccc2O)sc2c1CCCCC2
IC50: 19 µM

CCOC(=O)c1c(NC(=O)COc2cccc3c2CCN(C)C3=O)sc2c1CCC2
IC50: > 20 µM (inactive)

CCC(CC)CN1C(N(C)C)=NC[C@@H]1CC(C)C
IC50: > 20 µM (inactive)

Cc1cc(C)c(C(N)=O)c(SCC(=O)c2cc(C)n(-c3cc(C)on3)c2C)n1
IC50: > 20 µM (inactive)

Cc1ccsc1CNc1ncnc2ccc(-c3c(C)noc3C)cc12
IC50: > 20 µM (inactive)

CCCCn1c(SCc2c(C)noc2C)nc2cc(S(N)(=O)=O)ccc21
IC50: > 20 µM (inactive)

CC1Sc2n(c3ccccc3[n+]2C)N=C1c1ccccc1 (stereo not drawn)
IC50: > 20 µM (inactive)

CNc1ccccc1C(C)(C)c1cc(-c2cccc(Br)c2)no1
IC50: > 20 µM (inactive)

CCCCCCC[N+](CC)(CC)CCCCc1ccc(Cl)cc1
IC50: > 20 µM (inactive)

Clc1ccc(-c2cn(-c3ccccc3)c3[n+]2CCS3)cc1
IC50: > 20 µM (inactive)

O=C(c1cc(COc2cccc3cnccc23)on1)N1CCCC(CCCO)C1 (stereo not drawn)
IC50: > 20 µM (inactive)

CC1CCCCC1NS(=O)(=O)c1ccc(S(=O)(=O)NCc2ccncc2)cc1 (stereo not drawn)
IC50: > 20 µM (inactive)

CC[N+](CC)(CC#Cc1ccccc1)CC#Cc1ccccc1
IC50: > 20 µM (inactive)
